The supplement of paper PMC11061612

How the values were obtained:
[1] = tested on: BICR78 (Oral Cavity Carcinoma); assay: Bliss excess, mean over the matrix (fraction); higher = more synergy
Summary of the method: (§1)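 Bliss excess equals the observed combination effect minus the expected value EA + EB − EA·EB, where EA and EB are the effects of each agent alone. Combination Emax is the second-highest inhibition within the matrix. Inhibition was scaled from CellTiter-Glo 2.0 luminescence, with 0 set by vehicle wells and 1 by blank wells, after 72 hours of two-drug dosing of cells plated in 1536-well plates.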

[2] = tested on: DOK (Oral Cavity Carcinoma); assay: as above
Summary of the method: as §1

[3] = tested on: EW-22 (Ewing's Sarcoma); assay: as above
Summary of the method: as §1

[4] = tested on: FU-OV-1 (Ovarian Carcinoma); assay: as above
Summary of the method: as §1

[5] = tested on: H4 (Low Grade Glioma); assay: as above
Summary of the method: as §1

[6] = tested on: MEG-01 (Chronic Myelogenous Leukemia); assay: as above
Summary of the method: as §1

[7] = tested on: P31-FUJ (Acute Myeloid Leukemia); assay: as above
Summary of the method: as §1

[8] = tested on: SK-UT-1 (Other Solid Carcinomas); assay: as above
Summary of the method: as §1

[9] = tested on: SLVL (B-Cell Non-Hodgkin's Lymphoma); assay: as above
Summary of the method: as §1

[10] = tested on: SW48 (Colorectal Carcinoma); assay: as above
Summary of the method: as §1

[11] = tested on: Saos-2 (Osteosarcoma); assay: as above
Summary of the method: as §1

[12] = tested on: TC-YIK (Other Solid Carcinomas); assay: as above
Summary of the method: as §1

[13] = tested on: WSU-DLCL2 (B-Cell Non-Hodgkin's Lymphoma); assay: as above
Summary of the method: as §1

[14] = tested on: CAL-39 (Other Solid Carcinomas); assay: combination Emax (second highest fraction inhibited in the dose matrix, 72 h); higher = more inhibition; extreme values may be limits of the assay
Summary of the method: as §1

[15] = tested on: CS1 (Chondrosarcoma); assay: as above
Summary of the method: as §1

[16] = tested on: EW-22 (Ewing's Sarcoma); assay: as above
Summary of the method: as §1

[17] = tested on: H4 (Low Grade Glioma); assay: as above
Summary of the method: as §1

[18] = tested on: HCC38 (Breast Carcinoma); assay: as above
Summary of the method: as §1

[19] = tested on: SK-UT-1 (Other Solid Carcinomas); assay: as above
Summary of the method: as §1

[20] = tested on: YT (Other Blood Carcinomas); assay: as above
Summary of the method: as §1

Row | Compound | Bliss excess [1] | Bliss excess [2] | Bliss excess [3] | Bliss excess [4] | Bliss excess [5] | Bliss excess [6] | Bliss excess [7] | Bliss excess [8] | Bliss excess [9] | Bliss excess [10] | Bliss excess [11] | Bliss excess [12] | Bliss excess [13] | combination Emax [14] | combination Emax [15] | combination Emax [16] | combination Emax [17] | combination Emax [18] | combination Emax [19] | combination Emax [20]
1 | O=C(c1cc(Cc2n[nH]c(=O)c3ccccc23)ccc1F)N1CCN(C(=O)C2CC2)CC1 [Olaparib] + CN(CC[C@H](CSC1=CC=CC=C1)NC2=C(C=C(C=C2)S(=O)(=O)NC(=O)C3=CC=C(C=C3)N4CCC(CC4)[C@H](C5=CC=CC=C5C6=CC=C(C=C6)Cl)O)S(=O)(=O)C(F)(F)F)CCO [AZD4320] (first compound max 10 µM, 7x7, partner max 1 µM) | -0.0656 | -0.101 | 0.0385 | -0.0355 | 0.0106 | -0.009 | -0.131 | 0.0299 | 0.0356 | -0.0239 | -0.0312 | 0.0047 | 0.0579 | 0.116 | 0.431 | 0.988 | 0.389 | 0.482 | 0.466 | 0.343
2 | N#Cc1cnc(Nc2cc(NC[C@H]3CNCCO3)c(C(F)(F)F)cn2)cn1 [SRA737] + C=CCn1c(=O)c2cnc(Nc3ccc(N4CCN(C)CC4)cc3)nc2n1-c1cccc(C(C)(C)O)n1 [AZD1775] (first compound max 10 µM, partner max 1 µM) | -0.0326 | -0.0139 | 0.0315 | 0.0719 | 0.0327 | -0.0314 | 0.0411 | 0.0497 | 0.0581 | 0.0468 | 0.0939 | 0.0278 | 0.205 | 0.454 | 0.596 | 0.873 | 0.792 | 0.576 | 0.843 | 1
3 | Cc1c2c(nn1C)CSCc1cc(n(C)n1)CSc1cc(c3ccccc3c1)OCCCc1c(C(=O)O)n(C)c3c-2c(Cl)ccc13 [AZD5991] + CS(=O)(=O)CCNCc1ccc(-c2ccc3ncnc(Nc4ccc(OCc5cccc(F)c5)c(Cl)c4)c3c2)o1 [Lapatinib] (first compound max 1 µM, 7x7, partner max 10 µM) | -0.0065 | 0.111 | -0.0028 | -0.0179 | 0.0407 | -0.0318 | -0.0445 | 0.032 | 0.0502 | 0.0213 | -0.0071 | -0.0418 | 0.0601 | 0.998 | 0.506 | 0.41 | 0.484 | 0.366 | 0.485 | 1
4 | C[C@@H](Oc1cc(-c2cnn(C3CCNCC3)c2)cnc1N)c1c(Cl)ccc(F)c1Cl [Crizotinib] + CC1=C(C(=CC=C1)Cl)NC(=O)C2=CN=C(S2)NC3=CC(=NC(=N3)C)N4CCN(CC4)CCO [Dasatinib] (first compound max 10 µM, 7x7, partner max 2 µM) | 0.0142 | -0.0008 | -0.0466 | 0.0761 | 0.0857 | 0.0253 | -0.0311 | 0.0539 | 0.0167 | -0.0118 | 0.0807 | -0.0378 | 0.0824 | 0.987 | 0.836 | 0.766 | 0.963 | 0.348 | 0.454 | 0.885
5 | C=CCn1c(=O)c2cnc(Nc3ccc(N4CCN(C)CC4)cc3)nc2n1-c1cccc(C(C)(C)O)n1 [AZD1775] + Nc1ccn([C@@H]2O[C@H](CO)[C@@H](O)C2(F)F)c(=O)n1 [Gemcitabine] (first compound max 1 µM, partner max 0.3 µM) | 0.0412 | -0.0216 | -0.0431 | -0.0741 | -0.0148 | -0.0001 | 0.0797 | -0.0194 | -0.0357 | 0.0828 | -0.0728 | -0.0642 | 0.0694 | 0.914 | 0.661 | 0.921 | 0.949 | 0.747 | 0.916 | 0.997
6 | N#Cc1cnc(Nc2cc(NC[C@H]3CNCCO3)c(C(F)(F)F)cn2)cn1 [SRA737] + CCc1c2c(nc3ccc(O)cc13)-c1cc3c(c(=O)n1C2)COC(=O)[C@]3(O)CC [SN-38] (first compound max 10 µM, 7x7, partner max 0.3 µM) | -0.0015 | -0.0531 | -0.0592 | -0.0076 | -0.0029 | 0.0468 | -0.0541 | -0.0033 | -0.0909 | -0.0411 | -0.0303 | -0.0041 | 0.0055 | 0.93 | 0.786 | 0.932 | 0.832 | 0.682 | 0.943 | 0.987
7 | N#Cc1cnc(Nc2cc(NC[C@H]3CNCCO3)c(C(F)(F)F)cn2)cn1 [SRA737] + Nc1ccn([C@@H]2O[C@H](CO)[C@@H](O)C2(F)F)c(=O)n1 [Gemcitabine] (first compound max 10 µM, 7x7, partner max 0.3 µM) | 0.068 | 0.0191 | -0.0202 | -0.0233 | 0.0511 | -0.0324 | 0.057 | 0.0162 | 0.0004 | 0.0107 | 0.0276 | -0.0605 | 0.111 | 0.932 | 0.737 | 0.93 | 0.953 | 0.731 | 0.957 | 1
8 | O=C(c1cc(Cc2n[nH]c(=O)c3ccccc23)ccc1F)N1CCN(C(=O)C2CC2)CC1 [Olaparib] + COc1nnc2ccc(N3CCC(c4ccc(OCCN5CCN(C)C(=O)[C@H]5C)cc4)CC3)nn12 [AZD5153] (first compound max 10 µM, 7x7, partner max 1 µM) | -0.0458 | -0.0404 | 0.0369 | -0.0107 | -0.0248 | -0.0579 | -0.0621 | -0.02 | 0.0142 | -0.071 | -0.02 | -0.0784 | -0.0091 | 0.518 | 0.374 | 0.909 | 0.658 | 0.412 | 0.559 | 0.53
9 | C[C@@H](Nc1cc(F)cc(F)c1)c1cc(C(=O)N(C)C)cc2c(=O)cc(N3CCOCC3)oc12 [AZD8186] + CC(=O)c1c(C)c2cnc(Nc3ccc(N4CCNCC4)cn3)nc2n(C2CCCC2)c1=O [Palbociclib] (first compound max 10 µM, 7x7, partner max 10 µM) | -0.0525 | 0.0079 | 0.05 | -0.0311 | 0.122 | -0.0585 | -0.0164 | 0.008 | 0.0035 | 0.0715 | -0.0181 | 0.036 | 0.0762 | 0.772 | 0.513 | 0.45 | 0.697 | 0.209 | 0.231 | 0.448
10 | O=C(c1cc(Cc2n[nH]c(=O)c3ccccc23)ccc1F)N1CCN(C(=O)C2CC2)CC1 [Olaparib] + Cc1c2c(nn1C)CSCc1cc(n(C)n1)CSc1cc(c3ccccc3c1)OCCCc1c(C(=O)O)n(C)c3c-2c(Cl)ccc13 [AZD5991] (first compound max 10 µM, 7x7, partner max 1 µM) | -0.0643 | -0.0192 | -0.016 | -0.071 | 0.0256 | -0.0416 | -0.0125 | -0.0141 | -0.0034 | -0.0253 | -0.0087 | -0.0566 | 0.0378 | 0.21 | 0.0992 | 0.93 | 0.393 | 0.156 | 0.109 | 1
11 | C=CCn1c(=O)c2cnc(Nc3ccc(N4CCN(C)CC4)cc3)nc2n1-c1cccc(C(C)(C)O)n1 [AZD1775] + CCc1c2c(nc3ccc(O)cc13)-c1cc3c(c(=O)n1C2)COC(=O)[C@]3(O)CC [SN-38] (first compound max 1 µM, partner max 0.3 µM) | -0.0403 | -0.0096 | -0.0286 | -0.102 | 0.015 | -0.0251 | 0.0049 | -0.032 | -0.0701 | -0.0052 | -0.0514 | -0.0451 | 0.003 | 0.947 | 0.786 | 0.94 | 0.908 | 0.751 | 0.982 | 0.977
12 | CN(CCO)CC[C@H](CSc1ccccc1)Nc1ccc(S(=O)(=O)NC(=O)c2ccc(N3CCC([C@@H](O)c4ccccc4-c4ccc(Cl)cc4)CC3)cc2)cc1S(=O)(=O)C(F)(F)F [AZD4320] + CS(=O)(=O)CCNCc1ccc(-c2ccc3ncnc(Nc4ccc(OCc5cccc(F)c5)c(Cl)c4)c3c2)o1 [Lapatinib] (first compound max 1 µM, 7x7, partner max 10 µM) | 0.0251 | 0.0402 | 0.0967 | -0.0203 | -0.0113 | 0.103 | 0.109 | 0.006 | 0.0675 | 0.14 | 0.083 | 0.0065 | 0.203 | 0.97 | 0.937 | 0.971 | 0.93 | 0.913 | 0.906 | 0.451
13 | CN(CCO)CC[C@H](CSc1ccccc1)Nc1ccc(S(=O)(=O)NC(=O)c2ccc(N3CCC([C@@H](O)c4ccccc4-c4ccc(Cl)cc4)CC3)cc2)cc1S(=O)(=O)C(F)(F)F [AZD4320] + Nc1ccn([C@@H]2O[C@H](CO)[C@@H](O)C2(F)F)c(=O)n1 [Gemcitabine] (first compound max 1 µM, 7x7, partner max 0.3 µM) | -0.0581 | 0.0797 | 0.0287 | -0.0498 | 0.0194 | 0.0059 | -0.0492 | 0.0159 | -0.0135 | 0.0089 | 0.121 | -0.0091 | 0.0032 | 0.97 | 0.789 | 0.999 | 0.988 | 0.813 | 0.978 | 0.862
14 | C[C@@H]1COCCN1c1cc(C2([S@](C)(=N)=O)CC2)nc(-c2ccnc3[nH]ccc23)n1 [AZD6738] + Nc1ccn([C@@H]2O[C@H](CO)[C@@H](O)C2(F)F)c(=O)n1 [Gemcitabine] (first compound max 10 µM, 7x7, partner max 0.3 µM) | 0.0298 | 0.0785 | 0.0068 | -0.0143 | 0.0184 | -0.0258 | 0.0545 | 0.0317 | -0.0284 | -0.0329 | 0.0312 | -0.0046 | 0.0721 | 0.961 | 0.734 | 0.949 | 0.957 | 0.744 | 0.979 | 1
